Patent publication US7138543B2, “Thiolalkyl benzoic acid derivatives” (Guilford Pharmaceuticals Inc., priority 2001, dated 2006)

Biological target: T1, NAALADase (Homo sapiens, UniProt Q04609)
T1 construct: from tissue; host or cells: unspecified tissue
Assay: In vitro inhibition of NAALADase activity
Assay type: biochemical
Conditions: unit inferred
Experimental: In vitro Inhibition of NAALADase Activity
Protocol for Assaying in vitro Inhibition of NAALADase Activity
The following were combined in assay tubes: 100 μL of 10 mM CoCl2, 250 μL of 200 mM Tris chloride, 100 μL tissue, 100 μL of 10 mM NAALADase inhibitor in Bakers H2O, and Bakers H2O to make a total volume of 950 μL. Each assay tube was then incubated for 10 minutes in a 37° C. water bath. […] The assay was stopped by adding 1.0 ml of 0.1 M sodium phosphate.
Glutamate released by the action of the NAALADase enzyme was separated from the assay solution using an anion exchange resin. The resin was equilibrated to 25° C., 2.0 ml of the resin was added to a Pasteur pipette pre-loaded with a single glass bead, and each column was washed twice with distilled H2O. A column was placed over a scintillation vial and 200 μL of an assay sample was loaded onto the column. After draining, glutamate was eluted using two 1.0 ml washes of 1 M formic acid. After addition of 10 ml of scintillation cocktail, each sample was counted for 2 minutes on a scintillation counter.

T1 sequence (Q04609 whole entry): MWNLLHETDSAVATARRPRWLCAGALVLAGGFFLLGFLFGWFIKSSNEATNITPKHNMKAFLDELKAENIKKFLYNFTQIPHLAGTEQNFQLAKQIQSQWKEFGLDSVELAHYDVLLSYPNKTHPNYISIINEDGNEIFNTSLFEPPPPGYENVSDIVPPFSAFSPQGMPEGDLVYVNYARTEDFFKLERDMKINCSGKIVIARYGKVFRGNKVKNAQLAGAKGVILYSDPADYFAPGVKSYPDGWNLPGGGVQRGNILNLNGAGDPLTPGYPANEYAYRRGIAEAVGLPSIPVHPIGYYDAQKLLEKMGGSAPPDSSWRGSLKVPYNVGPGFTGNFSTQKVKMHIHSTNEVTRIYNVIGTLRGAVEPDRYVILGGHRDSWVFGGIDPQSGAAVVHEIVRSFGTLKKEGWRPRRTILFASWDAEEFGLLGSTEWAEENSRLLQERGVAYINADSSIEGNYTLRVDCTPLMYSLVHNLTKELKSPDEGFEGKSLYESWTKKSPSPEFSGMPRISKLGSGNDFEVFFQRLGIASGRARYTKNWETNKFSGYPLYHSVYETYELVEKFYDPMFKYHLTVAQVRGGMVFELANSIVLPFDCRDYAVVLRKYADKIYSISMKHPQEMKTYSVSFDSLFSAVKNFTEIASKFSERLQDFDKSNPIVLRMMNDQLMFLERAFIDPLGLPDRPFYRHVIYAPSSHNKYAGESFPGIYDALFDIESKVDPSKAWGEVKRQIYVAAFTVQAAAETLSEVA

Question: `COc1cccc(CCS)c1C(=O)O` [Compound 44, 2-(2-mercapto-ethyl)-6-methoxy-benzoicacid] was tested. Which IC50 did it give?
Answer: 954 nM

Question: For `O=C(O)c1c(CCS)cccc1OCc1ccc(Br)cc1` [Compound 41, 2-(4-bromo-benzyloxy)-6-(2-mercapto-ethyl)-benzoic acid], which IC50 is on record?
Answer: 1250 nM

Question: Which IC50 does the source give for `COc1ccc(C(=O)O)c(COc2cccc(CCS)c2C(=O)O)c1` [Compound 39, 2-[(2-carboxy-5-methoxyphenyl)methoxy]-6-(2-mercaptoethyl)-benzoicacid] here?
Answer: 40 nM

Question: How did the IC50 turn out when `CC(C)(C)c1ccc(COc2cccc(CCS)c2C(=O)O)cc1` [Compound 42, 2-(4-tert-butyl-benzyloxy)-6-(2-mercapto-ethyl)-benzoic acid] was run?
Answer: 300 nM

Question: Which IC50 does the source give for `O=C(O)Cc1cccc(CCS)c1C(=O)O` [Compound 48, 2-carboxymethyl-6-(2-mercapto-ethyl)-benzoic acid] here?
Answer: 43 nM

Question: Which IC50 does the source give for `COc1ccc(COc2cccc(CCS)c2C(=O)O)cc1` [Compound 36, 2-(2-mercaptoethyl)-6-[(4-methoxyphenyl)methoxy]-benzoic acid] here?
Answer: 100 nM

Question: Which IC50 does the source give for `O=C(O)c1c(CCS)cccc1OCc1ccccc1` [Compound 7, 2-(2-mercaptoethyl)-6-(phenylmethoxy)-benzoic acid] here?
Answer: 89.8 nM

Question: With `O=C(O)c1cc(COc2cccc(CCS)c2C(=O)O)ccc1Br` [Compound 38, 2-[(4-bromo-3-carboxyphenyl)methoxy]-6-(2-mercaptoethyl)-benzoic acid] as the compound, how does the IC50 read?
Answer: 0.8 nM

Question: For `O=C(O)c1ccc(Br)c(COc2cccc(CCS)c2C(=O)O)c1` [Compound 35, 2-[(2-bromo-5-carboxyphenyl)methoxy]-6-(2-mercaptoethyl)-benzoic acid], which IC50 is on record?
Answer: 1.2 nM

Question: Which IC50 does the source give for `O=C(O)c1cccc(COc2cccc(CCS)c2C(=O)O)c1` [Compound 40, 2-(3-carboxy-benzyloxy)-6-(2-mercapto-ethyl)-benzoic acid] here?
Answer: 1 nM

Question: Which IC50 does the source give for `O=C(O)c1c(CCS)cccc1OCc1ccc(Cl)cc1` [Compound 32, 2-[(4-chlorophenyl)methoxy]-6-(2-mercaptoethyl)-benzoic acid] here?
Answer: 25 nM

Question: For `O=C(O)c1cc(Br)cc(COc2cccc(CCS)c2C(=O)O)c1` [Compound 34, 2-[(3-bromo-5-carboxyphenyl)methoxy]-6-(2-mercaptoethyl)-benzoic acid], which IC50 is on record?
Answer: 0.9 nM

Question: How did the IC50 turn out when `O=C(O)c1c(CCS)cccc1OCc1cccc(Br)c1` [Compound 43, 2-(3-bromo-benzyloxy)-6-(2-mercapto-ethyl)-benzoic acid] was run?
Answer: 104 nM

Question: With `O=C(O)c1c(CCS)cccc1OCc1cccc(Cl)c1` [Compound 46, 2-(3-chloro-benzyloxy)-6-(2-mercapto-ethyl)-benzoic acid] as the compound, how does the IC50 read?
Answer: 12200 nM

Question: How did the IC50 turn out when `O=C(O)c1ccccc1CS` [Compound 31, 2-(mercaptomethyl)-benzoic acid] was run?
Answer: 100000 nM

Question: For `O=C(O)c1c(CCS)cccc1-c1ccccc1` [Compound 47, 3-(2-mercapto-ethyl)-biphenyl-2-carboxylic acid], which IC50 is on record?
Answer: 75400 nM

Question: Which IC50 does the source give for `O=C(O)c1cccc(-c2ccc(CS)cc2C(=O)O)c1` [Compound 26, 4-(mercaptomethyl)-[1,1′-biphenyl]-2,3′-dicarboxylic acid] here?
Answer: 24.3 nM

Question: Which IC50 does the source give for `O=C(O)c1c(CCS)cccc1OC(c1ccccc1)c1ccccc1` [Compound 45, 2-benzhydryloxy-6-(2-mercapto-ethyl)-benzoic acid] here?
Answer: 35200 nM

Question: How did the IC50 turn out when `O=C(O)c1ccc(COc2cccc(CCS)c2C(=O)O)cc1` [Compound 9, 2-[(4-carboxyphenyl)methoxy]-6-(2-mercaptoethyl)-benzoic acid] was run?
Answer: 28.8 nM

Question: For `O=C(O)c1ccc(COc2cccc(CCS)c2C(=O)O)cc1Br` [Compound 20, 2-[(3-bromo-4-carboxyphenyl)methoxy]-6-(2-mercaptoethyl)-benzoic acid], which IC50 is on record?
Answer: 18 nM

Question: Which IC50 does the source give for `Cc1ccc(COc2cccc(CCS)c2C(=O)O)cc1` [Compound 37, 2-(2-mercaptoethyl)-6-[(4-methylphenyl)methoxy]-benzoic acid] here?
Answer: 70 nM

Question: `O=C(O)c1c(CCS)cccc1OCc1ccccc1-c1ccccc1` [Compound 33, 2-(biphenyl-2-ylmethoxy)-6-(2-mercaptoethyl)-benzoic acid] was tested. Which IC50 did it give?
Answer: 95 nM

Tested on: cortical cell cultures
Assay: In vitro assay on ischemia (potassium cyanide and 2-deoxyglucose insult)
Assay type: cell-based
Conditions: concentration required to cause a 50% reduction in glutamate toxicity following an ischemic insult; unit inferred
Experimental: In vitro Assay on Ischemia
To examine the in vitro effect of the compounds of the invention on ischemia, cortical cell cultures were treated with various compounds of the invention during an ischemic insult utilizing potassium cyanide and 2-deoxyglucose, and for one hour thereafter. For a description of the experimental method used, see Vornov et al., J. Neurochem., Vol. 65, No. 4, pp. 1681–1691 (1995).

Question: With `O=C(O)c1cc(OCc2ccccc2)ccc1CCS` [Compound 4, 2-(2-mercaptoethyl)-5-(phenylmethoxy)-benzoic acid,] as the compound, how does the EC50 read?
Answer: 9600 nM

Question: With `O=C(O)c1ccc(COc2ccc(CCS)c(C(=O)O)c2)cc1` [Compound 3, 5-[(4-carboxyphenyl)methoxy]-2-(2-mercaptoethyl)-benzoic acid] as the compound, how does the EC50 read?
Answer: 10000 nM

Question: With `O=C(O)c1c(CCS)cccc1OCc1ccccc1` [Compound 7, 2-(2-mercaptoethyl)-6-(phenylmethoxy)-benzoic acid] as the compound, how does the EC50 read?
Answer: 96 nM

Question: With `O=C(O)c1cc(CS)ccc1OCc1ccccc1` [Compound 27, 5-(mercaptomethyl)-2-(phenylmethoxy)-benzoic acid] as the compound, how does the EC50 read?
Answer: 728 nM

Question: `O=C(O)c1ccccc1COc1cccc(CCS)c1C(=O)O` [Compound 8, 2-[(2-carboxyphenyl)methoxy]-6-(2-mercaptoethyl)-benzoic acid] was tested. Which EC50 did it give?
Answer: 29 nM

Question: Which EC50 does the source give for `O=C(O)c1ccccc1CCS` [Compound 1, 2-(2-mercaptoethyl)-benzoic acid] here?
Answer: 846 nM

Question: For `O=C(O)c1cccc(CS)c1` [Compound 30, 3-(mercaptomethyl)-benzoic acid], which EC50 is on record?
Answer: 619 nM

Question: `O=C(O)c1cc(CS)ccc1Br` [Compound 25, 2-bromo-5-(mercaptomethyl)-benzoic acid] was tested. Which EC50 did it give?
Answer: 2000 nM

Question: `O=C(O)c1cccc(COc2ccc(CCS)c(C(=O)O)c2)c1` [Compound 6, 5-[(3-carboxyphenyl)methoxy]-2-(2-mercaptoethyl)-benzoic acid] was tested. Which EC50 did it give?
Answer: 84 nM

Question: `O=C(O)c1cccc(-c2ccc(CS)cc2C(=O)O)c1` [Compound 26, 4-(mercaptomethyl)-[1,1′-biphenyl]-2,3′-dicarboxylic acid] was tested. Which EC50 did it give?
Answer: 151 nM

Question: `O=C(O)c1ccc(COc2cccc(CCS)c2C(=O)O)cc1` [Compound 9, 2-[(4-carboxyphenyl)methoxy]-6-(2-mercaptoethyl)-benzoic acid] was tested. Which EC50 did it give?
Answer: 19 nM

Question: For `O=C(O)c1cccc(CCS)c1` [Compound 29, 3-(2-mercaptoethyl)-benzoic acid], which EC50 is on record?
Answer: 2400 nM

Tested on: chronic constrictive injury-induced rats
Assay: Neuropathic pain in CCI model (sciatic nerve ligation)
Assay type: in vivo
Conditions: 0.1 mg/kg for 18 days after sciatic nerve ligation, FIG. 14
Experimental: In vivo Assay of NAALADase Inhibitors on Neuropathic Pain in CCI Model
Sciatic nerve ligation, consisting of 4 ligatures tied loosely around the sciatic nerve at 1 mm intervals proximal to the nerve trifurcation, was performed on rats. […] The rats were habituated to a Hargreaves apparatus. An infrared heat source was directed onto the dorsal surface of each rat's hindpaws and the time taken for the rat to withdraw its paws was noted. The difference in scores between the latency of the response for the paw on the operated side versus the paw on the unoperated control side was determined.

Question: Which “withdrawal latency difference scores between operated and unoperated paws” value does the source give for `O=C(O)c1cccc(-c2cccc(CCS)c2C(=O)O)c1` [Compound 10, 3-(2-mercaptoethyl)-[1,1′-biphenyl]-2,3′-dicarboxylic acid] here?
Answer: normalized the difference in scores

Same assay, conditions: 10, 1 or 0.1 mg/kg for 15 days after sciatic nerve ligation, FIG. 13

Question: With `O=C(O)c1ccc(COc2cccc(CCS)c2C(=O)O)cc1` [Compound 9, 2-[(4-carboxyphenyl)methoxy]-6-(2-mercaptoethyl)-benzoic acid] as the compound, how does the “withdrawal latency difference scores between operated and unoperated paws” value read?
Answer: normalized the difference in scores

Tested on: STZ diabetic rats
Assay: Reversal of diabetic neuropathy in STZ model, delayed dosing: thermal hyperalgesia
Assay type: in vivo
Conditions: daily p.o., treatment from 5 weeks post STZ, within two weeks of treatment, FIG. 22
Experimental: (§1) In vivo Assay of NAALADase Inhibitors—Reversal of Diabetic Neuropathy in STZ Model
(§2) General Method for STZ Model—Delayed Dosing
(§3) Rats (200–225 grams) were injected with STZ (70 mg/kg) into the tail vein. Diabetes (>350 mg/dl) was confirmed in all rats, 4 weeks after STZ administration. Rats were left untreated until 35–49 days after STZ. Compound D (1, 3, or 10 mg/kg), Compound E (10 mg/kg), or vehicle were dosed daily p.o. following confirmation of hyperalgesia and/or nerve conduction velocity deficits. In separate experiments, onset of treatment was delayed until 60 to 90 days after STZ administration. Nerve conduction velocity or withdrawal response to thermal stimulation of hind paws was measured at intervals, usually bi-weekly for thermal response and monthly for nerve conduction velocity.
Animals were acclimated to the apparatus for at least 5 min. An infra-red source was placed under below the plantar surface of the rat hind-paw. The intensity of the source was adjusted so that latency for normal rats was about 10 secs. Animals were tested for thermal response latency according to the method of Hargreaves et al (Pain 77–88, 1988). Each animal was tested 8 times (4 each hind limb) and the latency of response recorded automatically to nearest 0.1 sec. An average of the last 4 measurements for each paw was calculated (8 total measurements) and noted for each rat.

Question: With `O=C(O)c1cccc(CC(CCCS)C(=O)O)c1` (stereo not drawn) [Compound E, 3-Carboxy-alpha-(3-mercaptopropyl)-benzenepropanoic acid] as the compound, how does the “neuropathic hyperalgesia (thermal response latency)” value read?
Answer: reversed towards normal

Tested on: STZ diabetic rats
Assay: Reversal of diabetic neuropathy in STZ model, delayed dosing: nerve conduction velocity
Assay type: in vivo
Conditions: daily p.o., within 8 weeks of dosing, persisted through 12 weeks, FIG. 23
Experimental: as §1, §2, §3
Nerve Conduction Velocity Measurements
Sensory and motor nerve conduction velocities were evaluated using the method of De Koning and Gispen (Peptides 8: 415–422, 1987). Electrophysiological evaluation was carried out within one hour of dosing. Animals were anesthetized with isoflurane and stimulating needle electrodes were inserted close to the sciatic nerve at the sciatic notch and the tibial nerve near the ankle. Recording electrodes were placed over the foot muscles. Stimuli were applied and responses recorded. Motor and sensory nerve conduction velocities were calculated by measuring the distance between the sciatic notch and ankle sites, and the latency between the M-wave and the H-reflex.

Question: Which “motor nerve conduction velocity” value does the source give for `O=C(O)c1cccc(CC(CCCS)C(=O)O)c1` (stereo not drawn) [Compound E, 3-Carboxy-alpha-(3-mercaptopropyl)-benzenepropanoic acid] here?
Answer: reversed the motor nerve conduction velocity towards normal
